In patent publication US20240067632A1, “WEE1 Degrading Compounds and Uses Thereof” (Bristol-Myers Squibb Company, priority 2022, published 2024):

Experiments:
[1] = system: MKN45 cells; assay: MKN45 cell proliferation assay (Cell-Titer-Glo, 120 h); format: cell-based; details: for EC50: Homo sapiens, MKN-45, 120 h, Cell-Titer-Glo, growth inhibition, read-out: MKN45 Cell Prolif. 120 hr (EC50); for MKN45 Cell Prolif. 120 hr (Ymin-Obs): minimal percent of DMSO control observed in the concentrations tested
Outline: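 Cells seeded at 400/well onto pre-printed 10-point half-log dilutions (top 1 or 10 uM, 0.1% DMSO final), in triplicate, and grown 120 h at 37 C. Viability by Cell-Titer-Glo luminescence, blank-subtracted and normalised to DMSO; EC50 from four-parameter logistic fit, with observed minimal % of control recorded as Ymin-obs.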

[2] = target: T1, WEE1 (Homo sapiens, UniProt P30291+Q96SW2); assay: WEE1-ePL degradation assay (LentiX-WEE1-ePL-GSPT1-ND cells, InCELL Hunter luminescence, 4 h); format: cell-based; details: 293T-LentiX WEE1-ePL cells; for 293T-LentiX WEE1-ePL Degradation 4 hr (Ymin): lower limit of the fit (0 = luciferase inhibitor, Ymax = DMSO control); for DC50: read-out: 293T-LentiX WEE1-ePL Degradation 4 hr (EC50)
T1 construct: C-terminal ePL-tagged (DiscoverX, Fremont, CA) full-length WEE1 expression construct; expressed in transfected cells; host or cells: LentiX-HEK293T (Invitrogen), lentiviral transduction; co-expressing GSPT1-GN (G576N, lacking the first 158 amino acids)
Outline: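 First, compounds were pre-plated as 10-point, 3-fold dilutions (top 1 uM or 10 uM) with DMSO control; next, WEE1-ePL-expressing HEK293T cells were added and held 4 h at 37 °C; finally, InCELL Hunter reagent was applied for 30 min before luminescence reading. A 4PL fit gave EC50 and Ymin.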

Row | Compound | EC50 [1] | MKN45 Cell Prolif. 120 hr (Ymin-Obs) [1] | 293T-LentiX WEE1-ePL Degradation 4 hr (Ymin) [2] | DC50 [2]
1 | O=C1CCC(N2Cc3cc(O[C@H]4CCN(Cc5cc6ccccc6[nH]c5=O)C4)ccc3C2=O)C(=O)N1 (stereo partly drawn) [3-(1-oxo-5-{[(3S)-1-[(2-oxo-1,2-dihydroquinolin-3-yl)methyl]pyrrolidin-3-yl]oxy}-2,3-dihydro-1H-isoindol-2-yl)piperidine-2,6-dione] | 1710 nM | 30.3825 | 37.28 | 112 nM
2 | O=C1CCC(N2Cc3cc(O[C@H]4CCN(Cc5ccc6[nH]c(=O)ccc6c5)C4)ccc3C2=O)C(=O)N1 (stereo partly drawn) [3-(1-oxo-5-{[(3S)-1-[(2-oxo-1,2-dihydroquinolin-6-yl)methyl]pyrrolidin-3-yl]oxy}-2,3-dihydro-1H-isoindol-2-yl)piperidine-2,6-dione] | 610 nM | 17.75 | 40.56 | 74.7 nM
3 | O=C1CCC(N2Cc3cc(O[C@H]4CCN(Cc5ccc6ccc(=O)oc6c5)C4)ccc3C2=O)C(=O)N1 (stereo partly drawn) [3-(1-oxo-5-{[(3S)-1-[(2-oxo-2H-chromen-7-yl)methyl]pyrrolidin-3-yl]oxy}-2,3-dihydro-1H-isoindol-2-yl)piperidine-2,6-dione] | > 10000 nM | 85.765 | 55 | 28.8 nM
4 | O=C1CCC(N2Cc3cc(O[C@H]4CCN(Cc5ccc6c(c5)OC(=O)CN6)C4)ccc3C2=O)C(=O)N1 (stereo partly drawn) [3-(1-oxo-5-{[(3S)-1-[(2-oxo-3,4-dihydro-2H-1,4-benzoxazin-7-yl)methyl]pyrrolidin-3-yl]oxy}-2,3-dihydro-1H-isoindol-2-yl)piperidine-2,6-dione] | > 10000 nM | 90.28 | 80 | 
5 | O=C1CCC(N2Cc3cc(O[C@H]4CCN(Cc5ccnc(-c6ccccc6)c5)C4)ccc3C2=O)C(=O)N1 (stereo partly drawn) [3-(1-oxo-5-{[(3S)-1-[(2-phenylpyridin-4-yl)methyl]pyrrolidin-3-yl]oxy}-2,3-dihydro-1H-isoindol-2-yl)piperidine-2,6-dione] | 23 nM | 9.19 | 38 | 6.94 nM
6 | CO[C@H]1CC[C@](C)(Nc2ccc3cc(CN4CC[C@H](Oc5ccc6c(c5)CN(C5CCC(=O)NC5=O)C6=O)C4)ccc3n2)CC1 (stereo partly drawn) [3-(1-oxo-5-{[(3S)-1-[(2-{[(1r,4r)-4-methoxy-1-methylcyclohexyl]amino}quinolin-6-yl)methyl]pyrrolidin-3-yl]oxy}-2,3-dihydro-1H-isoindol-2-yl)piperidine-2,6-dione] | 4.2 nM | 8.155 | 30 | 5.36 nM
7 | CO[C@H]1CC[C@H](Nc2ccc3cc(CN4CC[C@H](Oc5ccc6c(c5)CN(C5CCC(=O)NC5=O)C6=O)C4)ccc3n2)CC1 (stereo partly drawn) [3-(1-oxo-5-{[(3S)-1-[(2-{[(1r,4r)-4-methoxycyclohexyl]amino}quinolin-6-yl)methyl]pyrrolidin-3-yl]oxy}-2,3-dihydro-1H-isoindol-2-yl)piperidine-2,6-dione] | 5.05 nM | 8.26 | 32.5 | 6.28 nM
8 | CO[C@H]1CC[C@H](Oc2ccc3cc(CN4CC[C@H](Oc5ccc6c(c5)CN(C5CCC(=O)NC5=O)C6=O)C4)ccc3n2)CC1 (stereo partly drawn) [3-(1-oxo-5-{[(3S)-1-[(2-{[(1r,4r)-4-methoxycyclohexyl]oxy}quinolin-6-yl)methyl]pyrrolidin-3-yl]oxy}-2,3-dihydro-1H-isoindol-2-yl)piperidine-2,6-dione] | 9.05 nM | 8.57 | 30.67 | 11.5 nM
9 | CO[C@H]1CC[C@@](C)(Nc2ccc3cc(CN4CC[C@H](Oc5ccc6c(c5)CN(C5CCC(=O)NC5=O)C6=O)C4)ccc3n2)CC1 (stereo partly drawn) [3-(1-oxo-5-{[(3S)-1-[(2-{[(1s,4s)-4-methoxy-1-methylcyclohexyl]amino}quinolin-6-yl)methyl]pyrrolidin-3-yl]oxy}-2,3-dihydro-1H-isoindol-2-yl)piperidine-2,6-dione] | 0.882 nM | 8.44 | 26 | 3.41 nM
10 | CO[C@H]1CC[C@@H](Nc2ccc3cc(CN4CC[C@H](Oc5ccc6c(c5)CN(C5CCC(=O)NC5=O)C6=O)C4)ccc3n2)CC1 (stereo partly drawn) [3-(1-oxo-5-{[(3S)-1-[(2-{[(1s,4s)-4-methoxycyclohexyl]amino}quinolin-6-yl)methyl]pyrrolidin-3-yl]oxy}-2,3-dihydro-1H-isoindol-2-yl)piperidine-2,6-dione] | 1.04 nM | 6.285 | 29.5 | 6.38 nM
11 | CO[C@H]1CC[C@@H](Oc2ccc3cc(CN4CC[C@H](Oc5ccc6c(c5)CN(C5CCC(=O)NC5=O)C6=O)C4)ccc3n2)CC1 (stereo partly drawn) [3-(1-oxo-5-{[(3S)-1-[(2-{[(1s,4s)-4-methoxycyclohexyl]oxy}quinolin-6-yl)methyl]pyrrolidin-3-yl]oxy}-2,3-dihydro-1H-isoindol-2-yl)piperidine-2,6-dione] | 5.35 nM | 8.79 | 31.33 | 4.62 nM
12 | O=C1CCC(N2Cc3cc(O[C@H]4CCN(Cc5ccc6nc(CO[C@@H]7CCOC7)ccc6c5)C4)ccc3C2=O)C(=O)N1 (stereo partly drawn) [3-(1-oxo-5-{[(3S)-1-[(2-{[(3R)-oxolan-3-yloxy]methyl}quinolin-6-yl)methyl]pyrrolidin-3-yl]oxy}-2,3-dihydro-1H-isoindol-2-yl)piperidine-2,6-dione] | 2.62 nM | 6.56 | 30 | 4.51 nM
13 | O=C1CCC(N2Cc3cc(O[C@H]4CCN(Cc5ccc6nc(CO[C@H]7CCOC7)ccc6c5)C4)ccc3C2=O)C(=O)N1 (stereo partly drawn) [3-(1-oxo-5-{[(3S)-1-[(2-{[(3S)-oxolan-3-yloxy]methyl}quinolin-6-yl)methyl]pyrrolidin-3-yl]oxy}-2,3-dihydro-1H-isoindol-2-yl)piperidine-2,6-dione] | 3.12 nM | 7.75 | 33 | 7.04 nM
14 | O=C1CCC(N2Cc3cc(O[C@H]4CCN(Cc5ccc6c(c5)NC(=O)CO6)C4)ccc3C2=O)C(=O)N1 (stereo partly drawn) [3-(1-oxo-5-{[(3S)-1-[(3-oxo-3,4-dihydro-2H-1,4-benzoxazin-6-yl)methyl]pyrrolidin-3-yl]oxy}-2,3-dihydro-1H-isoindol-2-yl)piperidine-2,6-dione] | > 10000 nM | 88.425 | 70 | 558 nM
15 | O=C1CCC(N2Cc3cc(O[C@H]4CCN(Cc5cc(-c6ccccc6)ccn5)C4)ccc3C2=O)C(=O)N1 (stereo partly drawn) [3-(1-oxo-5-{[(3S)-1-[(4-phenylpyridin-2-yl)methyl]pyrrolidin-3-yl]oxy}-2,3-dihydro-1H-isoindol-2-yl)piperidine-2,6-dione] | 16.7 nM | 8.59 | 34.5 | 5.3 nM
16 | O=C1CCC(N2Cc3cc(O[C@H]4CCN(Cc5ccc(-c6ccccc6)cn5)C4)ccc3C2=O)C(=O)N1 (stereo partly drawn) [3-(1-oxo-5-{[(3S)-1-[(5-phenylpyridin-2-yl)methyl]pyrrolidin-3-yl]oxy}-2,3-dihydro-1H-isoindol-2-yl)piperidine-2,6-dione] | 131 nM | 31.28 | 46 | 7.59 nM
17 | O=C1CCC(N2Cc3cc(O[C@H]4CCN(Cc5cncc(-c6ccccc6)c5)C4)ccc3C2=O)C(=O)N1 (stereo partly drawn) [3-(1-oxo-5-{[(3S)-1-[(5-phenylpyridin-3-yl)methyl]pyrrolidin-3-yl]oxy}-2,3-dihydro-1H-isoindol-2-yl)piperidine-2,6-dione] | 8.4 nM | 7.52 | 33 | 2.17 nM
18 | O=C1CCC(N2Cc3cc(O[C@H]4CCN(Cc5ccc6cnncc6c5)C4)ccc3C2=O)C(=O)N1 (stereo partly drawn) [3-(1-oxo-5-{[(3S)-1-[(phthalazin-6-yl)methyl]pyrrolidin-3-yl]oxy}-2,3-dihydro-1H-isoindol-2-yl)piperidine-2,6-dione] | 883 nM | 16.7 | 38 | 148 nM
19 | O=C1CCC(N2Cc3cc(O[C@H]4CCN(Cc5ncc6ccccc6n5)C4)ccc3C2=O)C(=O)N1 (stereo partly drawn) [3-(1-oxo-5-{[(3S)-1-[(quinazolin-2-yl)methyl]pyrrolidin-3-yl]oxy}-2,3-dihydro-1H-isoindol-2-yl)piperidine-2,6-dione] | 4770 nM | 74.28 | 48.23 | 51.9 nM
20 | O=C1CCC(N2Cc3cc(O[C@H]4CCN(Cc5ccc6ncncc6c5)C4)ccc3C2=O)C(=O)N1 (stereo partly drawn) [3-(1-oxo-5-{[(3S)-1-[(quinazolin-6-yl)methyl]pyrrolidin-3-yl]oxy}-2,3-dihydro-1H-isoindol-2-yl)piperidine-2,6-dione] | 284 nM | 20.44 | 36.57 | 57 nM
